Data reported in patent publication US7135466B2 (Kirin Beer Kabushiki Kaisha, priority 1999, dated 2006).
pIC50: −log10 of the molar value. Like-named read-outs stand apart in the source and are kept apart here.

Key:
[1] = molecular target: T1, c-kit (Homo sapiens, UniProt P10721); assay: Inhibitory activity against c-kit autophosphorylation (MO7e cells, h-SCF); type: cell-based; conditions: for inhibition at 1 µM: Mo7e, at 1000 nM
T1 construct: MO7e (human megakaryocytic leukemia cell line) which had been arrested for 20 hr; endogenous in cells; host or cells: MO7e human megakaryocytic leukemia cell line
T1 sequence (P10721 26-976): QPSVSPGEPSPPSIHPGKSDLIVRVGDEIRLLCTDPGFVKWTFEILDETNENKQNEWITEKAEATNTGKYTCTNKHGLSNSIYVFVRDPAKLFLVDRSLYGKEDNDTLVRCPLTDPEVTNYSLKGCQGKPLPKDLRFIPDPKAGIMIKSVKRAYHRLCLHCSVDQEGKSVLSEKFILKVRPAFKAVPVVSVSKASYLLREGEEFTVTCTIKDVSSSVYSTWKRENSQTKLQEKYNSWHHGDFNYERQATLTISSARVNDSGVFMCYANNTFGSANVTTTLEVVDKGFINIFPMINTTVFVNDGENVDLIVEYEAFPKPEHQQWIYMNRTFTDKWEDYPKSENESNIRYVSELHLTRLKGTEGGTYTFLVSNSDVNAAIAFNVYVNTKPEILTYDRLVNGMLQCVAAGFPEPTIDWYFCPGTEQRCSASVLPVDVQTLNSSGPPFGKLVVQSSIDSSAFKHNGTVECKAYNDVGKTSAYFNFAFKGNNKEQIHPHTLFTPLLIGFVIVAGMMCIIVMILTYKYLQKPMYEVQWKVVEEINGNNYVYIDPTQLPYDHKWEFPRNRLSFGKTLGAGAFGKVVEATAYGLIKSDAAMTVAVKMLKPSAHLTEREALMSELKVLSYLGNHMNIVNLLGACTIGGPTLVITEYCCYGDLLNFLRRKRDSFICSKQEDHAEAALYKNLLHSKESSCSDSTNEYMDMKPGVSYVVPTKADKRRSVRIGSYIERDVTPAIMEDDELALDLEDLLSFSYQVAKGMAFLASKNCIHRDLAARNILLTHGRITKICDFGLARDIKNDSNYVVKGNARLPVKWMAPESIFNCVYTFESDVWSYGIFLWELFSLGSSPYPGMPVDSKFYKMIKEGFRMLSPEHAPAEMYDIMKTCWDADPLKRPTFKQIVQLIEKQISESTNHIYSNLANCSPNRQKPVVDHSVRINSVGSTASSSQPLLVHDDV
Summary of the method: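 Ligand-induced c-kit tyrosine phosphorylation is measured in MO7e cells that were quiesced 20 hr and preincubated with compound for 1 hr prior to a 5 min pulse of 50 ng/ml human SCF. Phospho-c-kit is detected by anti-phosphotyrosine capture ELISA, A450.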

[2] = molecular target: T2, PDGF-Ra (Homo sapiens, UniProt P16234); assay: Inhibitory activity against PDGF-Ra phosphorylation by PDGF-AA stimulation using G292; type: cell-based; conditions: for pIC50: > means inhibition at indicated concentration not more than 50%, < and << not less than 50%, read-out: PDGF (E) IC50; for inhibition at 0.1 µM: G292, figure in parentheses in >100( ), at 100 nM, read-out: PDGF (E) inhibition (%) at 100 nM
T2 construct: host or cells: G-292 human osteosarcoma cells
T2 sequence (P16234 24-1089): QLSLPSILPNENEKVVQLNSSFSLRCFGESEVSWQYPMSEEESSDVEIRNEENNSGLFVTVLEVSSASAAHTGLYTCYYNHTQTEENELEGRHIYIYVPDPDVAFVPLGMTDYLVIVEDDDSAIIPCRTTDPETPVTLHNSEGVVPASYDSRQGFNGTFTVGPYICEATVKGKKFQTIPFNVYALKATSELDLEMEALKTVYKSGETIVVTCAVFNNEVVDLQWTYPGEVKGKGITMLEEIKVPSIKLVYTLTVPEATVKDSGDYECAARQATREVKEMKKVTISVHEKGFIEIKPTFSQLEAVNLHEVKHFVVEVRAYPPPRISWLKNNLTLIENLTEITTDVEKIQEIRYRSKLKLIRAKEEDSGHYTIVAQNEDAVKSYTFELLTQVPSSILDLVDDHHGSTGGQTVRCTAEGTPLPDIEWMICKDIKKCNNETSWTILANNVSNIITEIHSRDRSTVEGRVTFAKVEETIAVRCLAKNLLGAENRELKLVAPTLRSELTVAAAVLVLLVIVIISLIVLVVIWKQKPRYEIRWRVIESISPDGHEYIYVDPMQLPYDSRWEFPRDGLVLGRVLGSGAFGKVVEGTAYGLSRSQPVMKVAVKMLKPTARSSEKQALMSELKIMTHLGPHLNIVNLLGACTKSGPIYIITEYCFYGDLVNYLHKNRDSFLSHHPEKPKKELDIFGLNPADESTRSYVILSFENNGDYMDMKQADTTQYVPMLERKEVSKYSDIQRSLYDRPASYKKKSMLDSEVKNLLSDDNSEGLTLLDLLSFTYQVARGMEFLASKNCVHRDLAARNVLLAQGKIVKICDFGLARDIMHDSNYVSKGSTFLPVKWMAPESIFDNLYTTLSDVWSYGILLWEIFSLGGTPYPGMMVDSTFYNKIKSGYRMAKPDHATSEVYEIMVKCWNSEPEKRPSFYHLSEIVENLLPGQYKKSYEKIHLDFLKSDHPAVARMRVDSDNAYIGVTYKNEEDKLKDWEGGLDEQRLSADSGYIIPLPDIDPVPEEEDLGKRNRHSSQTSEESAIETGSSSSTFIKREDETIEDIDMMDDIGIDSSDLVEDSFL
Summary of the method: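 Human osteosarcoma G-292, 0.1% FBS o/n; cpd (DMSO) 1 h 37 °C; PDGF-AA 50 ng/ml 5 min; lyse 20 min RT; PY-20 capture 4 °C o/n; anti-PDGF-Ra + HRP-GAR; OD450.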

[3] = MO7e cells, h-SCF 50 ng/ml, read-out: c-kit IC50
[4] = MO7e cells, 50 ng/ml h-SCF, read-out: c-kit IC50
[5] = MO7e cells, h-SCF stimulation, read-out: c-kit IC50

| Molecule | pIC50 [1, 4] | pIC50 [2] | further results |
| --- | --- | --- | --- |
| COc1cc2nccc(Oc3ccc(NC(=O)OC(C)c4ccc(F)cc4)c(C)c3C)c2cc1OC (centres unmarked) [Example 103, 1-(4-Fluorophenyl)ethyl N-{4-[(6,7-dimethoxy-4-quinolyl)oxy]-2,3-dimethylphenyl}carbamate] |  |  | pIC50 [1, 3]: 6.70; pIC50 ([2]; Pharmacological Test Example 1): 7.82 |
| CCN(CCNC(=O)Nc1ccc(Oc2ccnc3cc(OC)c(OC)cc23)cc1Cl)c1cccc(C)c1 [Example 669, N-{2-Chloro-4-[(6,7-dimethoxy-4-quinolyl)oxy]phenyl}-N′-[2-(ethyl-3-methylanilino)ethyl]urea] | 6.87 | 7.64 |  |
| COc1cc(Oc2ncnc3cc(OC)c(OC)cc23)ccc1NC(=O)NCCCN1CCN(C)CC1 [Example 633, N-{4-[(6,7-Dimethoxy-4-quinazolinyl)oxy]-2-methoxyphenyl}-N′-[3-(4-methylpiperazino)-propyl]urea] |  | 7.24 | inhibition at 1 µM ([1]; figure within parentheses in −( ) or >1000( )): 28% |
| CCCOC(=O)Nc1ccc(Oc2ncnc3cc(OC)c(OC)cc23)cc1 [Example 314, Propyl N-{4-[(6,7-dimethoxy-4-quinazolinyl)oxy]phenyl}carbamate] |  |  | pIC50 [1, 3]: 7.49; pIC50 ([2]; Pharmacological Test Example 1): 7.36 |
| CCCOC(=O)Nc1cc(C)c(Oc2ccnc3cc(OC)c(OC)cc23)cc1C [Example 244, Propyl N-{4-[(6,7-dimethoxy-4-quinolyl)oxy]-2,5-dimethylphenyl}carbamate] |  |  | pIC50 [1, 3]: 7.16; pIC50 ([2]; Pharmacological Test Example 1): 7.57 |
| COc1cc2nccc(Oc3ccc(NCCOc4c(C)cccc4C)cc3C)c2cc1OC [Example 881, N-{4-[(6,7-Dimethoxy-4-quinolyl)oxy]-3-methylphenyl}-N-[2-(2,6dimethylphenoxy)ethyl]amine] |  | < 7.52 | pIC50 [1, 5]: 6.46; PDGF (E) inhibition (%), figure in parentheses in >30( ) ([2]; figure in parentheses in >30( ), concentration not defined in key (presumably 30 nM)): 29% |
| COc1cc2nccc(Oc3ccc(NC(=O)OCc4ccc(F)cc4)c(C)c3C)c2cc1OC [Example 9, 4-Fluorobenzyl N-{4-[(6,7-dimethoxy-4-quinolyl)oxy]-2,3-dimethylphenyl}carbamate] |  |  | pIC50 [1, 3]: 7.35; pIC50 ([2]; Pharmacological Test Example 1): > 8.00 |
| CCC(OC(=O)Nc1ccc(Oc2ccnc3cc(OC)c(OC)cc23)cc1)c1ccccc1 (centres unmarked) [Example 263, 1-Phenylpropyl N-{4-[(6,7-dimethoxy-4-quinolyl)oxy]phenyl}carbamate] |  |  | pIC50 [1, 3]: 6.48; pIC50 ([2]; Pharmacological Test Example 1): 8.00 |
| CCN(CC)CCCOC(=O)Nc1ccc(Oc2ccnc3cc(OC)c(OC)cc23)cc1 [Example 426, 3-(Diethylamino)propyl N-{4-[(6,7-dimethoxy-4-quinolyl)oxy]phenyl}carbamate] | 6.57 | 7.66 |  |
| COc1ccccc1CCC(=O)NC(=S)Nc1ccc(Oc2ccnc3cc(OC)c(OC)cc23)cc1 [Example 1025, N-{4-[(6,7-Dimethoxy-4-quinolyl)oxy]phenyl}-N′-[3-(2-methoxyphenyl)propanoyl]thiourea] |  | 7.82 | pIC50 [1, 5]: 6.71 |
| COc1cccc(OCCCOC(=O)Nc2ccc(Oc3ccnc4cc(OC)c(OC)cc34)c(C)c2C)c1 [Example 162, 3-(3-Methoxyphenoxy)propyl N-{4-[(6,7-dimethoxy-4-quinolyl)oxy]-2,3-dimethylphenyl}carbamate] |  |  | pIC50 [1, 3]: 6.79; pIC50 ([2]; Pharmacological Test Example 1): 7.80 |
| COc1cc2nccc(Oc3ccc(NC(=O)OCCC4CCCCC4)c(C)c3C)c2cc1OC [Example 355, 2-Cyclohexylethyl N-{4-[(6,7-dimethoxy-4-quinolyl)oxy]-2,3-dimethylphenyl}carbamate] |  |  | pIC50 [1, 3]: 6.60; pIC50 ([2]; Pharmacological Test Example 1): 7.62 |
| COc1cc2nccc(Oc3ccc(NC(=O)NCCN4CCCC4)cc3)c2cc1OC [Example 618, N-{4-[(6,7-Dimethoxy-4-quinolyl)oxy]phenyl}-N′-(2-tetrahydro-1H-1-pyrrolylethyl)urea] | 6.02 | > 8.00 |  |
| CCCCCCOC(=O)Nc1ccc(Oc2ncnc3cc(OC)c(OC)cc23)cc1[N+](=O)[O-] [Example 509, Hexyl N-{4-[(6,7-dimethoxy-4-quinazolinyl)oxy]-2-nitrophenyl}carbamate] | 6.79 | 7.59 |  |
| COc1cc2nccc(Oc3ccc(NC(=S)NC(=O)N(CCCl)CCCl)cc3)c2cc1OC [Example 1042, N-{4-[(6,7-Dimethoxy-4-quinolyl)oxy]phenyl}-[{[di(2-chloroethyl)amino]carbonyl}amino]methanethioamide] |  | 7.41 | pIC50 ([1]; c-kit IC50, MO7e cells, h-SCF stimulation): 6.97 |
| COc1ccc(C(C)OC(=O)Nc2ccc(Oc3ncnc4cc(OC)c(OC)cc34)cc2Cl)cc1 (centres unmarked) [Example 36, 1-(4-Methoxyphenyl)ethyl N-{2-chloro-4-[(6,7-dimethoxy-4-quinazolinyl)oxy]phenyl}carbamate] |  |  | inhibition at 1 µM ([1]; figure in parentheses in −( )): 19%; inhibition at 0.1 µM [2]: 34%; pIC50 ([2]; Pharmacological Test Example 1): < 7.00 |
| COc1cc2ncnc(Oc3ccc(NC(=S)NC(=O)Cc4ccccc4C)cc3)c2cc1OC [Example 703, N-{4-[(6,7-Dimethoxy-4-quinazolinyl)oxy]phenyl}-N′-[2-(2-methylphenyl)acetyl]thiourea] | 6.43 | > 8.00 |  |
| COc1cc2nccc(Oc3ccc(NC(=O)OCc4ccc(C(C)(C)C)cc4)c(C)c3C)c2cc1OC [Example 58, 4-(Tert-butyl)benzyl N-{4-[(6,7-dimethoxy-4-quinolyl)oxy]-2,3-dimethylphenyl}carbamate] |  |  | pIC50 [1, 3]: 6.30; pIC50 ([2]; Pharmacological Test Example 1): 7.92 |
| N-{4-[(6,7-Dimethoxy-4-quinolyl)oxy]-2-methoxyphenyl}-N′-(1-homopiperidinyl)urea [Example 600] | 6.68 | > 8.00 |  |
| COc1ccc(OCCCOc2ccc(Oc3ccnc4cc(OC)c(OC)cc34)cc2)cc1 [Example 794, 6,7-Dimethoxy-4-{4-[3-(4-methoxy-phenoxy)propoxy]phenoxy}quinoline] | 6.72 | 7.85 |  |
| COc1cc2nccc(Oc3ccc(NC(=S)NC(=O)COc4ccccc4C)cc3Cl)c2cc1OC [Example 740, N-{3-Chloro-4-[(6,7-dimethoxy-4-quinolyl)oxy]phenyl}-N′-[2-(2-methylphenoxy)acetyl]thiourea] | 6.47 | 7.64 |  |
| COc1cc2nccc(Oc3ccc(NC(=S)NC(=O)Cc4ccccc4C)cc3Cl)c2cc1OC [Example 702, N-{3-Chloro-4-[(6,7-dimethoxy-4-quinolyl)oxy]phenyl}-N′-[2-(2-methylphenyl)acetyl]thiourea] | 6.31 | > 8.00 |  |

Second part, led by results:

| pIC50 [1, 4] | pIC50 [2] | Molecule | further results |
| --- | --- | --- | --- |
| 6.17 | > 8.00 | CCCC(CCC)OC(=O)Nc1ccc(Oc2ncnc3cc(OC)c(OC)cc23)cc1 [Example 400, 1-Propylbutyl N-{4-[(6,7-dimethoxy-4-quinazolinyl)oxy]phenyl}carbamate] |  |
| 7.07 | > 8.00 | COc1cc2ncnc(Oc3ccc(NC(=S)NC(=O)CCc4ccc(C)cc4)cc3)c2cc1OC [Example 722, N-{4-[(6,7-Dimethoxy-4-quinazolinyl)oxy]phenyl}-N′-[3-(4-methylphenyl)propanoyl]thiourea] |  |
| 6.27 | 7.11 | COc1cc2nccc(Oc3ccc(NC(=S)NCCN(C(C)C)C(C)C)c(C)c3C)c2cc1OC [Example 550, N-{4-[(6,7-Dimethoxy-4-quinolyl)oxy]-2,3-dimethylphenyl}-N′-(2-diisopropylaminoethyl)thiourea] |  |
|  | < 7.00 | COc1cc2nccc(Oc3ccc(NC(=S)NC(=O)c4ccc(-c5ccccc5)cc4)c(F)c3)c2cc1OC [Example 1125, N-(4-Phenylbenzoyl)-N′-{4-[(6,7-dimethoxy-4-quinolyl)oxy]-2-fluorophenyl}thiourea] | inhibition at 1 µM ([1]; figure in parentheses in −( )): 8%; inhibition at 0.1 µM [2]: 22% |
|  | 7.64 | COc1cc2nccc(Oc3ccc(NC(=S)NC(=O)c4ccc(C)s4)cc3)c2cc1OC [Example 1146, N-{4-[(6,7-Dimethoxy-4-quinolyl)oxy]phenyl}-N′-[(5-methyl-2-thienyl)carbonyl]thiourea] | pIC50 [1, 5]: 6.26 |
| > 7.52 | 7.70 | COc1cc2nccc(Oc3ccc(N(C)C(=O)OCC4CCCCCC4)cc3)c2cc1OC [Example 483, Cycloheptylmethyl N-{4-[(6,7-dimethoxy-4-quinolyl)oxy]phenyl}-N-methylcarbamate] |  |
|  | 8.00 | COc1cc2nccc(Oc3ccc(NC(=S)NC(=O)COCc4ccccc4)c(F)c3)c2cc1OC [Example 1031, N-[2-(Benzyloxy)acetyl]-N′-{4-[(6,7-dimethoxy-4-quinolyl)oxy]-2-fluorophenyl}thiourea] | pIC50 [1, 5]: 6.60 |
| 6.41 | 7.72 | COc1cc2nccc(Oc3ccc(NC(=O)NCCN(C(C)C)C(C)C)c([N+](=O)[O-])c3)c2cc1OC [Example 658, N-[2-(Diisopropylamino)ethyl]-N′-{4-[(6,7-dimethoxy-4-quinolyl)oxy]-2-nitrophenyl}urea] |  |
| 6.35 | 7.34 | COc1cc2nccc(Oc3ccc(NC(=O)NCCN4CCCCC4)c(C)c3C)c2cc1OC [Example 675, N-{4-[(6,7-Dimethoxy-4-quinolyl)oxy]-2,3-dimethylphenyl}-N′-(2-piperidinoethyl)urea] |  |
